“And” between values parts separate entries of the source, which are not always exact repeats. Identical values can stand only once.
How the values were obtained:
[1] = system: Phaedon cochleariae larvae; assay: Phaedon cochleariae larvae test (cabbage leaf dip); type: in vivo, mustard beetle (Phaedon cochleariae); settings: 4 ppm, single active ingredient
Text: (§1) The expected effect for a given combination of two active ingredients can be calculated (cf. Colby, S. R., “Calculating Synergistic and Antagonistic Responses of Herbicide Combinations”, Weeds, 15, pp. 20-22, 1967).
(§2) If • X=the kill rate, expressed in % of the untreated control, while using active ingredient A in an application amount of m ppm, • Y=the kill rate, expressed in % of the untreated control, while using active ingredient B in an application amount of n ppm, • E=the kill rate, expressed in % of die untreated control, while using active ingredient A and B in application amounts of m and n ppm, then
(§3) If the actual kill rate is higher than calculated rate, the combination's kill rate is superadditive, i.e., it has a synergistic effect. In this case, the actually observed kill rate must be higher than the value calculated using the above formula for the expected kill rate (E).
(§4) Solvent: 7 parts per weight dimethyl formamide Emulsifiers: 2 parts by weight alkylaryl polyglycol ether
To manufacture one of the appropriate active ingredient preparations, mix 1 part by weight of the active ingredient with the indicated amount of solvent and emulsifier and dilute the concentrate with emulsifier-containing water to the desired concentration.
Cabbage leaves (Brassica oleracea) are treated by being dipped into the active ingredient preparation at the desired concentration and infested with larvae of the mustard beetle (Phaedon cochleariae) while the leaves are still damp.
After the desired time, determine the % that have been killed off. For this purpose 100% means that all the beetle larvae on the leaves were killed; 0% means that no beetle larvae were killed. Calculate the determined kill values using Colby's formula.

[2] = system: Myzus persicae; assay: Myzus persicae test (cabbage leaf dip); type: in vivo, green peach aphid (Myzus persicae); settings: single active ingredient
Text: as §1, §2, §3, §4
(§5) To prepare one of the appropriate active ingredient preparations, mix 1 part by weight of the active ingredient with the indicated amount of solvent and emulsifier and dilute the concentrate with emulsifier-containing water to the desired concentration.
Cabbage leaves (Brassica oleracea) that have been highly infested with the green peach aphid (Myzus persicae) are treated by being dipped into the active ingredient preparation at the desired concentration.
After the desired time, determine the % that have been killed off. For these purposes, 100% means that all the aphids on the leaves were killed; 0% means that no aphids were killed. Calculate the determined kill values using Colby's formula.

[3] = system: Plutella xylostella, resistant strain; assay: Plutella xylostella test, resistant strain (cabbage leaf dip); type: in vivo, diamondback moth (Plutella xylostella; settings: 100 ppm, single active ingredient
Text: as §1, §2, §3
Solvent: 7 parts per weight dimethyl formamide Emulsifier: 2 parts by weight alkylaryl polyglycol ether
as §5
Cabbage leaves (Brassica oleracea) are treated by being dipped into the active ingredient preparation at the desired concentration and infested with diamondback moth grubs (Plutella xylostella, resistant strain) while the leaves are still damp.
After the desired time, determine the % that have been killed off. For these purposes 100% means that all the grubs on the leaves were killed; 0% means that no grubs were killed. Calculate the determined kill rate values using Colby's formula.

Structure (SMILES) | Kill rate in % after 6d [1] [%] | Kill rate in % after 6d ([2]; 0.8 ppm) [%] | Kill rate in % after 6d [3] | Dead in % after 6d ([2]; 0.8 ppm) [%] | Dead in % after 6d ([2]; 20 ppm) [%] | Kill rate in % after 6d ([2]; 20 ppm) [%]
CN/C(=N\[N+](=O)[O-])NCc1cnc(Cl)s1 [clothianidin] | 75 |  |  |  |  | 
CN1COCN(Cc2cnc(Cl)s2)/C1=N/[N+](=O)[O-] [thiamethoxam] | 25 | 85 | 75% |  |  | 
O=[N+]([O-])NC1=NCCN1Cc1ccc(Cl)nc1 [imidacloprid] | 45 |  |  |  |  | 
N#C/N=C1\SCCN1Cc1ccc(Cl)nc1 [thiacloprid] | 0 |  | 45% | 30 |  | 
CS/C(C)=N\OC(=O)N(C)SN(C)C(=O)O/N=C(\C)SC [thiodicarb] |  |  | 15% and 5% |  | 0 | 0
